Data as given in publication PMC2962730 (Journal of neurochemistry, 2010).
Substitutions are numbered along the chain they refer to.

Legend:
[1] = biological target: T1, hVAChT F231A (Homo sapiens, UniProt Q16572, F231A); experiment: [3H]vesamicol saturation binding; settings: pH 7.4
T1 sequence (Q16572 1-532 F231A): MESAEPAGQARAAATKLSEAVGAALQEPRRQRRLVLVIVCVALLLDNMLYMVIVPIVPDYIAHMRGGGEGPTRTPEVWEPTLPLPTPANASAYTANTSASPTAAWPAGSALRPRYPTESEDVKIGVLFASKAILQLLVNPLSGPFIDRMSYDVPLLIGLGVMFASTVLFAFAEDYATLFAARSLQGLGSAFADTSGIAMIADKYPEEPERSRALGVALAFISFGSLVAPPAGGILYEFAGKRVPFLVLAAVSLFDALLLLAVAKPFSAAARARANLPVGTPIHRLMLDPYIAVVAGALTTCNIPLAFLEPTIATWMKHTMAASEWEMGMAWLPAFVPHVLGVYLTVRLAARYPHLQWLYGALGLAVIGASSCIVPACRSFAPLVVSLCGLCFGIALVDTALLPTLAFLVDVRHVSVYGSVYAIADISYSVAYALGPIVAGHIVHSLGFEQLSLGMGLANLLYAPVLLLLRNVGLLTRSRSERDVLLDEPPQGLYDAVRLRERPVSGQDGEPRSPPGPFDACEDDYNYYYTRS

[2] = biological target: T2, hVAChT C388A (Homo sapiens, UniProt Q16572, C388A); experiment: [3H]vesamicol saturation binding; settings: pH 7.4
T2 sequence (Q16572 1-532 C388A): T1 sequence (Q16572 1-532 F231A) with A231F, C388A

[3] = tested on: VAChT C391Y; settings: ref Zhu et al. (2001); cited from earlier work
[4] = biological target: T3, hVAChT Y60W (Homo sapiens, UniProt Q16572, Y60W); experiment: [3H]ACh transport; assay type: biochemical
T3 sequence (Q16572 1-532 Y60W): T1 sequence (Q16572 1-532 F231A) with Y60W, A231F

[5] = biological target: T4, hVAChT A321F (Homo sapiens, UniProt Q16572, A321F); experiment: [3H]ACh transport; assay type: biochemical
T4 sequence (Q16572 1-532 A321F): T1 sequence (Q16572 1-532 F231A) with A231F, A321F

[6] = biological target: T5, hVAChT W325F (Homo sapiens, UniProt Q16572, W325F); experiment: ACh equilibrium binding by competition against [3H]vesamicol
T5 sequence (Q16572 1-532 W325F): T1 sequence (Q16572 1-532 F231A) with A231F, W325F

[7] = read-out: KM, Michaelis-Menten constant for ACh transport, pH 7.4

Row | Structure (SMILES) | Bmax, maximal specific [3H]vesamicol binding (VAChT expression level) [1] [pmol/mg] | Bmax, maximal specific [3H]vesamicol binding (VAChT expression level) [2] [pmol/mg] | vesamicol binding [3] | Vmax/Bmax, ACh transport normalized to Bmax ([4]; pH 7.4) [min⁻¹] | Km [4, 7] [µM] | Vmax/Bmax, ACh transport normalized to Bmax ([5]; pH 7.4) [min⁻¹] | Km [5, 7] [µM] | Kd [6] [mM] | FHA, fraction of the ACh sites that have high affinity ([6]; W325F hVAChT, pH 7.4)
1 | O[C@@H]1CCCC[C@H]1N1CCC(c2ccccc2)CC1 (racemic) [vesamicol, ( )-trans-2-(4-phenylpiperidino)cyclohexanol] | 64 ± 4 | 59 ± 1 | does not bind vesamicol | – | – | – | – | – | –
2 | CC(=O)OCC[N+](C)(C)C [ACh, acetylcholine] | – | – | – | 7.9 ± 0.8 | 920 ± 170 | 6.0 ± 0.5 | 350 ± 100 | 7.3 ± 1.6 | 0.74 ± 0.09
